# Test results from patent publication US5321030A, “Creatine analogs having antiviral activity” (priority 1991, dated 1994).
# Experiments:
# [1] = Phosphorylation of cyclocreatine in cultured cells
# [2] = system: herpes simplex virus type 2 (HSV-2), strain E194; assay: HSV-2 vaginitis in mice; type: in vivo, Swiss Webster female mice
# [3] = system: Parainfluenza Type 3 (PIV-3), strain C243; assay: CPE-reduction assay, parainfluenza type 3 in HEp-2 cells; type: cell-based
# [4] = system: HCMV, strain C8805-37 (DHPG resistant); assay: microbe, parasite or virus in culture; type: cell-based, Human Cytomegalovirus; design: TI50 (CD50 ÷ ED50): unit not given beside the values; conditions: for # Plaques: virus control 11.5 ± 2.1
smiles,measurement,setting,value
"NC1=NCCN1CC(=O)O [cyclocreatine, 1-carboxymethyl-2-iminoimidazolidine]",metabolised,[1]; a2058 cells,13%
same,metabolised,[1]; du 145 cells,76%
same,metabolised,[1]; me180 cells,85%
same,metabolised,[1]; vero cells,68%
same,antiviral effect in vaginitis model,[2]; 1% dietary,"comparable to that achieved by acyclovir at 200 mg/kg, 100 mg/kg or 50 mg/kg"
same,average lesion score,"[2]; 1% in chow, Grand Ave. (Days 3-14)",0.8 ± 0.2
same,average lesion score,"[2]; 1% in chow, day 3",0.2 ± 0.2
same,average lesion score,"[2]; 1% in chow, day 4",0.5 ± 0.7
same,average lesion score,"[2]; 1% in chow, day 5",0.9 ± 1.3
same,average lesion score,"[2]; 1% in chow, day 6",0.9 ± 1.3
same,average lesion score,"[2]; 1% in chow, day 7",0.8 ± 1.4
same,average lesion score,"[2]; 1% in chow, day 8",0.8 ± 1.4
same,average lesion score,"[2]; 1% in chow, day 9",1.0 ± 1.3
same,average lesion score,"[2]; 1% in chow, day 10",1.1 ± 1.3
same,average lesion score,"[2]; 1% in chow, day 11",1.0 ± 1.3
same,average lesion score,"[2]; 1% in chow, day 12",0.9 ± 1.3
same,average lesion score,"[2]; 1% in chow, day 13",0.9 ± 1.4
same,average lesion score,"[2]; 1% in chow, day 14",0.7 ± 1.4
same,activity in vaginitis model,[2]; 5% and […] cream topical,inactive
same,average lesion score,"[2]; 5% cream topical, Grand Ave. (Days 3-14)",2.3 ± 1.1
same,average lesion score,"[2]; 5% cream topical, day 3",0.3 ± 0.3
same,average lesion score,"[2]; 5% cream topical, day 4",0.4 ± 0.4
same,average lesion score,"[2]; 5% cream topical, day 5",1.5 ± 1.1
same,average lesion score,"[2]; 5% cream topical, day 6",2.1 ± 1.6
same,average lesion score,"[2]; 5% cream topical, day 7",2.0 ± 1.3
same,average lesion score,"[2]; 5% cream topical, day 8",2.8 ± 1.8
same,average lesion score,"[2]; 5% cream topical, day 9",3.2 ± 1.6
same,average lesion score,"[2]; 5% cream topical, day 10",3.2 ± 1.5
same,average lesion score,"[2]; 5% cream topical, day 11",3.1 ± 1.5
same,average lesion score,"[2]; 5% cream topical, day 12",3.0 ± 1.5
same,average lesion score,"[2]; 5% cream topical, day 13",3.0 ± 1.5
same,average lesion score,"[2]; 5% cream topical, day 14",3.0 ± 1.5
same,survival,[2]; 10% cream topical (16% in the placebo group),40%
same,effect on average lesion score,"[2]; 10% cream topical, FIG. 10",slightly reduces the average lesion score
same,average lesion score,"[2]; 10% cream topical, Grand Ave. (Days 3-14)",1.6 ± 0.8
same,average lesion score,"[2]; 10% cream topical, day 3",0.2 ± 0.2
same,average lesion score,"[2]; 10% cream topical, day 4",0.1 ± 0.2
same,average lesion score,"[2]; 10% cream topical, day 5",0.9 ± 1.2
same,average lesion score,"[2]; 10% cream topical, day 6",1.4 ± 1.9
same,average lesion score,"[2]; 10% cream topical, day 7",1.6 ± 1.9
same,average lesion score,"[2]; 10% cream topical, day 8",2.0 ± 2.0
same,average lesion score,"[2]; 10% cream topical, day 9",2.2 ± 1.9
same,average lesion score,"[2]; 10% cream topical, day 10",2.2 ± 1.9
same,average lesion score,"[2]; 10% cream topical, day 11",2.1 ± 1.9
same,average lesion score,"[2]; 10% cream topical, day 12",2.0 ± 1.9
same,average lesion score,"[2]; 10% cream topical, day 13",2.0 ± 1.9
same,average lesion score,"[2]; 10% cream topical, day 14",2.0 ± 1.9
same,average lesion score,"[2]; […] cream topical, Grand Ave. (Days 3-14)",2.0 ± 0.9
same,average lesion score,"[2]; […] cream topical, day 3",0.2 ± 0.2
same,average lesion score,"[2]; […] cream topical, day 4",0.4 ± 0.6
same,average lesion score,"[2]; […] cream topical, day 5",1.2 ± 1.3
same,average lesion score,"[2]; […] cream topical, day 6",1.8 ± 1.8
same,average lesion score,"[2]; […] cream topical, day 7",2.2 ± 1.8
same,average lesion score,"[2]; […] cream topical, day 8",2.7 ± 1.7
same,average lesion score,"[2]; […] cream topical, day 9",2.4 ± 1.9
same,average lesion score,"[2]; […] cream topical, day 10",2.6 ± 1.7
same,average lesion score,"[2]; […] cream topical, day 11",2.6 ± 1.7
same,average lesion score,"[2]; […] cream topical, day 12",2.6 ± 1.7
same,average lesion score,"[2]; […] cream topical, day 13",2.6 ± 1.7
same,average lesion score,"[2]; […] cream topical, day 14",2.6 ± 1.7
same,"activity in vaginitis model, second experiment",[2]; cream topical,"weak, but not statistically significant, activity"
same,Mean Day to Death,"[2]; virus infected, AM-285 1% dietary",6.0 ± 0.0
same,Average CPE,[3]; 5 mg/ml,2.8
same,Average CPE,[3]; 10 mg/ml,0.5
same,# Plaques,[4]; AM-285 156.25 μg/ml,9.5
same,# Plaques,[4]; AM-285 312.5 μg/ml,12
same,# Plaques,[4]; AM-285 625 μg/ml,10.5
same,# Plaques,[4]; AM-285 1250 μg/ml,9.5
same,# Plaques,[4]; AM-285 2500 μg/ml,6.5
same,# Plaques,[4]; AM-285 5000 μg/ml,1.5
same,# Plaques,[4]; AM-285 10000 μg/ml,0
same,inhibition at 156.25 µg/mL,"[4]; Human betaherpesvirus 5, MRC5, AM-285 156.25 μg/ml, read-out: % Reduction",0%
same,inhibition at 312.5 µg/mL,"[4]; Human betaherpesvirus 5, MRC5, AM-285 312.5 μg/ml, read-out: % Reduction",0%
same,inhibition at 625 µg/mL,"[4]; Human betaherpesvirus 5, MRC5, AM-285 625 μg/ml, read-out: % Reduction",0%
same,inhibition at 1250 µg/mL,"[4]; Human betaherpesvirus 5, MRC5, AM-285 1250 μg/ml, read-out: % Reduction",0%
same,inhibition at 2500 µg/mL,"[4]; Human betaherpesvirus 5, MRC5, AM-285 2500 μg/ml, read-out: % Reduction",43%
same,inhibition at 5000 µg/mL,"[4]; Human betaherpesvirus 5, MRC5, AM-285 5000 μg/ml, read-out: % Reduction",87%
same,inhibition at 10000 µg/mL,"[4]; Human betaherpesvirus 5, MRC5, AM-285 10000 μg/ml, read-out: % Reduction",100%
same,EC50,"[4]; Human betaherpesvirus 5, MRC5, MRC-5 cells, Table 7, read-out: ED50 (the source's name)",2780 µg/mL
same,TI50 (CD50 ÷ ED50),"[4]; MRC-5 cells, Table 7",> 3.6
